Values quoted from earlier work as cited in patent publication US8563018B2, “Foamable pesticide compositions” (priority 2009, dated 2013).

Legend:
[1] = system: termites; conditions: in vivo
[2] = system: ants; conditions: in vivo

**Q.** Which results are given for `N#Cc1nn(-c2c(Cl)cc(C(F)(F)F)cc2Cl)c(N)c1[S+]([O-])C(F)(F)F` (racemic) [Fipronil, (±)-5-amino-1-(2,6-dichloro-α,α,α-trifluoro-p-tolyl)-4-trifluoromethylsulfinylpyrazole-3-carbonitrile]?
**A.** dose toxic to termites [1]: 2 nanograms per termite; dose toxic to ants [2]: about 1 nanogram per ant
